The values that follow come from PMC12461739, “Multi-targeted azacoumarin–cyanocinnamate hybrids induce G2/M arrest and apoptosis via tubulin, and COX-2/VEGFR modulation: insights from in vitro mechanistic basis and in vivo validation” (RSC Medicinal Chemistry, 2025).

As a reminder, the IC50 is the concentration at which inhibition is half-maximal.

Series [1] has as its system MCF-10A cells. Description: MTT cytotoxicity assay, MCF-10A. Type of series: cell-based, human. As to the method: (§1) The cytotoxic effects of the synthesized compounds were evaluated using the MTT assay. […] Following incubation, cells were treated with serial dilutions of the test compounds prepared in DMSO. The final concentration of DMSO in all wells, including controls, was maintained below 0.5% v/v to avoid solvent-related cytotoxicity. Doxorubicin was used as a positive control for comparison of antiproliferative activity. Following 48 hours of treatment, the culture medium was gently removed, and each well received 20 μL of MTT reagent (5 mg mL^−1 in phosphate-buffered saline). The plates were incubated at 37 °C for 4 hours to facilitate the enzymatic reduction of MTT into formazan by metabolically active cells. After incubation, the solution was discarded, and 100 μL of dimethyl sulfoxide was added. The absorbance of each well was measured at 570 nm using a microplate spectrophotometer. Cell viability was determined by comparing absorbance values to those of the untreated controls and expressed as a percentage. GraphPad Prism software was used to plot dose–response curves and calculate IC50 values.

Series [2] in a line: MTT cytotoxicity assay, MCF-10A. Type of series: cell-based, human. To be noted: human, MCF-10A non-tumorigenic breast epithelial cells, MTT, 48 h treatment, non-tumorigenic breast epithelial cells; read-out: IC50, cytotoxicity toward MCF-10A. The method, then:
as §1

In series [3] the test system is p53. Description: qRT-PCR gene expression, p53. It is filed as cell-based, human. The note with it: MCF-7, 7.653 μM, 24 h. The method, then:
Untreated cells served as negative controls. RNA concentration and purity were verified spectrophotometrically prior to cDNA synthesis. Complementary DNA (cDNA) was synthesized from purified RNA using the RT^2 First Strand Kit (Qiagen, Valencia, CA, USA) following the supplied protocol. Quantitative real-time PCR (qRT-PCR) was performed on a Corbett Rotor-Gene 6000 system (Qiagen, USA) using the RT^2 SYBR® Green ROX™ FAST Master Mix (Qiagen). Each 25 μL reaction contained 12.5 μL of master mix, 1 μL of gene-specific primers (RT^2 qPCR Primer Assays, Qiagen), 1 μL of cDNA template, and 10.5 μL of RNase-free water. Gene-specific primers were selected using the PrimerBank database for BAX, BCL2, and TP53, along with GAPDH as the endogenous control (Table S3). Thermal cycling conditions were set as follows: initial enzyme activation at 95 °C for 10 minutes, followed by 40 cycles of denaturation at 95 °C for 15 seconds, and annealing at 60 °C for 30 seconds. Amplification specificity was confirmed by melting curve analysis. Gene expression levels were normalized to GAPDH mRNA as the internal reference, and relative quantification was performed using the ΔΔCt method. […] Statistical analysis was performed using GraphPad Prism software, with p < 0.05 considered statistically significant.[79]
A general note: In qPCR the cycle at which signal appears reflects the starting amount.

A short description of series [4]: Liver histopathology (H&E).
Description: Additionally, liver and kidney tissues were excised from each animal for further evaluation. […] The second portion was fixed in 10% neutral buffered formalin for histopathological examination to assess tissue morphology and damage.[96,97]
Liver and kidney tissues were collected from all experimental groups at the end of the study and immediately fixed in 10% neutral buffered formalin. After fixation, the samples were dehydrated, embedded in paraffin, and sectioned at a thickness of 5 μm using a rotary microtome. […] Histopathological examination of renal tissue focused on identifying acute tubular injury (ATI), characterized by tubular epithelial cell flattening, necrosis, apical vacuolization, and loss of the brush border. These features were assessed using a semi-quantitative scoring system.[110] Hepatic tissue sections were evaluated for the severity of hepatocellular injury using a modified Brunt grading system, which includes assessment of hepatocyte ballooning, necrosis, inflammation, and other degenerative changes.
Series [5] has as its target T1, COX-1 (Ovis aries, UniProt P05979).
T1 construct: purchased BioVision K548-100
T1 sequence (P05979 25-600): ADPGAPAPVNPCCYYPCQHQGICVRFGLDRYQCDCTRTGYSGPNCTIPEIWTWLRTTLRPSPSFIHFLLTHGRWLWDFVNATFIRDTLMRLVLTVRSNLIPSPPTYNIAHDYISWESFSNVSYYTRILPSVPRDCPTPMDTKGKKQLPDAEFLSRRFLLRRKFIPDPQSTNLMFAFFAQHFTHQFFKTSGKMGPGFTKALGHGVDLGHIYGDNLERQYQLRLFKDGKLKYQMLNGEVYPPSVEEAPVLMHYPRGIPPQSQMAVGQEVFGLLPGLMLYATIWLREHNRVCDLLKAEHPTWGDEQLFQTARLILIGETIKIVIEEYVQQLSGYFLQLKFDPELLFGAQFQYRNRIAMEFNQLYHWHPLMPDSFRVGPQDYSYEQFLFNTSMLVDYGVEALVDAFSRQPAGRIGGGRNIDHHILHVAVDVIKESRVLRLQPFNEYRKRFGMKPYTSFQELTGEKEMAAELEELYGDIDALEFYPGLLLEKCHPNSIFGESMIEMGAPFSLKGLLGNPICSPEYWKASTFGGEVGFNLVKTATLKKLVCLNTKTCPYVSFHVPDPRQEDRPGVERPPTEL
Description: COX-1 inhibitor screening (fluorometric). Type of series: biochemical. The note with it: read-out: IC50 toward COX-1. As to the method: COX-1 and COX-2 enzymes were reconstituted in sterile water (110 μL) and kept on ice until use. Arachidonic acid was activated by mixing 5 μL with 5 μL of NaOH, followed by a 10-fold dilution with water and vortexing. A reaction mixture (80 μL per well) was prepared by combining 76 μL of assay buffer, 1 μL of COX probe, 2 μL of 200-fold diluted COX cofactor, and 1 μL of COX-1 or COX-2 enzyme. This mix was added to each well, followed by 10 μL of the prepared arachidonic acid/NaOH solution to initiate the reaction. Fluorescence was recorded at 25 °C using a microplate reader. The percent inhibition was determined by comparing the fluorescence increase in treated wells relative to the enzyme control. IC50 values were calculated from the concentration–response curves using GraphPad Prism.

Values joined by “and” are separate entries in the source; they are usually repeats but may differ in a detail not shown here. Equal values may be shown once.

With `CCOC(=O)/C(C#N)=C/c1ccc(Oc2c(C)c3cc(Br)c(O)c(Br)c3[nH]c2=O)cc1` [Compound 7, ethyl (E)-2-cyano-3-(4-((6,8-dibromo-7-hydroxy-4-methyl-2-oxo-1,2-dihydroquinolin-3-yl)oxy)phenyl)acrylate], the “selectivity index toward breast cancer cells” value in series [1] (MCF-10A vs MCF-7 / MDA-MB 231) was 5.3 to 6.8. The IC50 in series [1] (MTT, 48 h treatment, non-tumorigenic breast epithelial cells, read-out: IC50, cytotoxicity toward MCF-10A) is 52.1 ± 1.76 µM; in series [5] it was 7.49 µM and 7.5 µM. For the same compound, the IC50 at 48 h in series [2] came to 52 µM. Also, the “p53 expression relative to untreated control” value in series [3] came out at 3.03 fold. For the same compound, in series [4] (EAC + compound 7, EAC group approximately 45%), the hepatocyte hydropic degeneration result was “around 15%”. For the same compound, the portal inflammation grade in series [4] (EAC + compound 7, EAC group grade 3) is 2; in series [4] (compound 7 only, no EAC), 2. The liver pathology score in series [4] (EAC + compound 7, EAC group score 7, untreated 0) was found to be 3; in series [4] (compound 7 only, no EAC, untreated 0), 4. This compound returned a lobular inflammation grade in series [4] (compound 7 only, no EAC) of 1.
